The assay has as its system non-stimulated bone resorption. Kind of assay: Inhibition of non-stimulated bone resorption by determining the excretion of [3H]-tetracycline in urine. The assay is classed as in vivo. The note with it: rats, subcutaneous, 2 × 200 mg/kg (8 a.m. and 5 p.m. on sixth day of urine collection); reduced [3H]-tetracycline excretion in urine on eighth day. Here is the method: Inhibition of non-stimulated bone resorption by determining the excretion of [^3 H]-tetracycline in urine:
From birth onwards rats received a twice-weekly injection of increasing amounts of a solution of 3.7×10^5 Bq/ml (10 μCi/ml) [7-^3 H]-tetracycline ([^3 H]TC); New England Nuclear, Boston, Mass.) with a specific activity of 679 mCi/mmol. The volume per injection is increased from 50 μl/week to 250 μl in the fifth week and kept at this level for a further week. The total amount of administered [^3 H]TC was 20 μCi per rat. 51-day-old rats are transferred to individual metabolic cages and received a group feeding with feed which contained 0.5% Ca and 0.35% P. This feed was produced by addition of appropriate amounts of calcium and phosphate (SODI 2134, "Klingenthalmuhle"). The animals received distilled water ad libitum during the entire duration of the experiment. Collection of 24 hour urine was begun after 61 days. The urine was collected daily at 11 o'clock; the animals also received food at this time. On the sixth day after the start of the urine collection, the animals received subcutaneous injections of the substance (at 8 a.m. and 5 p.m.). […] The ^3 H-TC in urine is determined by liquid scintillation by adding 10 ml of the scintillator Pico-Fluor 30 (Packard International, Zurich, Switzerland) to 1 ml of the urine. […]

For `O=C(O)C(CC(CCCN1CCCC1)(C(=O)O)P(=O)(O)O)P(=O)(O)O` (centres unmarked) [Example 4, 2,4-diphosphono-2-pyrrolidinopropylglutaric acid], the “% rel. inhibition/dosage” value was 37%.

With `NCCCCC(CC(C(=O)O)P(=O)(O)O)(C(=O)O)P(=O)(O)O` (centres unmarked) [Example 5], the “% rel. inhibition/dosage” value turned out to be 45%.
